35 compounds from US6534546B1 (Chugai Seiyaku Kabushiki Kaisha, priority 1994, dated 2003) can be followed below.

For assay [1], the target named is iNOS (Type 2) (Rattus norvegicus, UniProt Q06518). In words: biochemical. Type of assay: biochemical.
For assay [2], the target named is T1, E-cNOS (Type 3) (Bos taurus, UniProt P29473).
T1 construct: the resulting supernatant was used as the crude enzyme sample of E-cNOS; endogenous in cells; host or cells: CPAE (cow pulmonary arterial endothelium cells), 1% Triton X-100 extract, 100,000 x g supernatant
T1 sequence (P29473 2-1205): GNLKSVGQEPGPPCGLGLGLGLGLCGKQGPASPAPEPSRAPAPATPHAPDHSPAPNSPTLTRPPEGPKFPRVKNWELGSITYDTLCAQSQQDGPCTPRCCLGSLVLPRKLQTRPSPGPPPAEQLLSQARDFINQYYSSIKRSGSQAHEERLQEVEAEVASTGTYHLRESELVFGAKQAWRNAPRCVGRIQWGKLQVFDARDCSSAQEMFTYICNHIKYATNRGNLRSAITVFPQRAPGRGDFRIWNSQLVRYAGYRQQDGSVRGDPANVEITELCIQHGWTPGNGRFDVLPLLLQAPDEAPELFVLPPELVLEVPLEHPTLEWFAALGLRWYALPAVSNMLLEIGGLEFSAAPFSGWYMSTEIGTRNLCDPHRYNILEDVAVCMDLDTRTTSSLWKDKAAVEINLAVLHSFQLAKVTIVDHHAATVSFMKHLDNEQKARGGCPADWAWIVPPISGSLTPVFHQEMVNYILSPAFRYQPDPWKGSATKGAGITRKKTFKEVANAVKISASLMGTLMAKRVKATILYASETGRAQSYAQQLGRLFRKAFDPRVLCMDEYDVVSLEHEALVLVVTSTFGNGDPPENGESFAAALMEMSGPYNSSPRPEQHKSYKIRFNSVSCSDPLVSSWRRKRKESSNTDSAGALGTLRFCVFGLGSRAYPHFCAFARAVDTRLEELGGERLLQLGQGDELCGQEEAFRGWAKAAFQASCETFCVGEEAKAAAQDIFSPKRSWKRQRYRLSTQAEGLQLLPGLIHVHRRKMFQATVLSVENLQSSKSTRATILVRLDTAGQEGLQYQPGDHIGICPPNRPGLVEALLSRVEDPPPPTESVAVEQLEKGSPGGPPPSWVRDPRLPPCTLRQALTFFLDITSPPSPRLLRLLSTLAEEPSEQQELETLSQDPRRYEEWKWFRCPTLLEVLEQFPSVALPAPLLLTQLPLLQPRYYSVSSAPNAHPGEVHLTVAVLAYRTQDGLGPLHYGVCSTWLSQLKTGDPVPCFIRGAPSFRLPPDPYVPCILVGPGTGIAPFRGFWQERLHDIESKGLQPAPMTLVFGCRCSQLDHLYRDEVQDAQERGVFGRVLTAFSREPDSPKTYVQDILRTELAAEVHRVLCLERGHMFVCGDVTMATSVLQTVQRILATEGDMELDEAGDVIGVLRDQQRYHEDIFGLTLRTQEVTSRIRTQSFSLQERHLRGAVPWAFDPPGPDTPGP
In words: biochemical.
Experimental: The crude enzyme sample of E-cNOS was prepared by the following procedure. A cow pulmonary arterial endothielium cell (CPAE) was cultured in a MEM medium containing 20% FBS. […] A suitable amount of Ca- and Mg-free phosphate buffer (pH 7.4) was added to the precipitating cells and they were centrifuged at 1,000 rpm for 10 min. The same step was repeated to wash the cells which, upon addition of 50 mM Tris-HCl (pH 7.4) containing 1% Triton X-100 and 1 mM DTT, were left to stand in ice for 1 h. Subsequently, the mixture was homogenized for 3 min and kept in ice for 30 min with occasional stirring. Finally, the mixture was centrifuged at 100,000×g for 60 min and the resulting supernatant was used as the crude enzyme sample of E-cNOS.
The reaction was started by addition of L-[^3H]arginine and following incubation at 37° C. for 10 min, the reaction was terminated by addition of 2 ml of 50 mM Tris-HCl (pH 5.5) containing 1 mM EDTA and placing the mixture on ice. The reaction solution was passed through a cation-exchange resin column (Dowex AG50WX-8, Na^+ form, 3.2 ml) to separate the reaction product L-[^3H]citrulline from the unreacted residual substrate L-[^3H]arginine. The eluate was combined with another eluate resulting from the passage of a given amount of distilled water through the column and put into a minivial for recovery of L-[^3H]citrulline. Thereafter, a scintillation fluid was added and the contained radioactivity was measured with a liquid scintillation counter to determine the amount of L-[^3H]citrulline.
The activity of N-cNOS or E-cNOS was determined by subtracting the activity as detected in the absence of CaCl2 and calmodulin from the activity as detected in the presence of CaCl2 and calmodulin. […] The protein concentration of each crude enzyme sample was determined with a micro-assay kit of Biorad Co. Each experiment was conducted in a duplicate.

Setting [3] is: conclusion from Tables 49, 50 and 51.
[4] abbreviates: mean of one to four independent experiments, crude enzyme, 100 nM L-[3H]arginine, without CaCl2 and calmodulin, read-out: IC50 value, iNOS (Type 2).
[5] abbreviates: mean of one to four independent experiments, crude enzyme, 100 nM L-[3H]arginine, read-out: IC50 value, E-cNOS (Type 3).
[6] abbreviates: mean of one to four independent experiments, LPS-treated rat lung crude enzyme, read-out: IC50 value, iNOS (Type 2).

Where a name gives a salt, the structure may show the parent alone. Read-outs that look alike come from different tables or passages of the source.

iNOS (Type 2), sequence (Q06518 whole entry, looked up): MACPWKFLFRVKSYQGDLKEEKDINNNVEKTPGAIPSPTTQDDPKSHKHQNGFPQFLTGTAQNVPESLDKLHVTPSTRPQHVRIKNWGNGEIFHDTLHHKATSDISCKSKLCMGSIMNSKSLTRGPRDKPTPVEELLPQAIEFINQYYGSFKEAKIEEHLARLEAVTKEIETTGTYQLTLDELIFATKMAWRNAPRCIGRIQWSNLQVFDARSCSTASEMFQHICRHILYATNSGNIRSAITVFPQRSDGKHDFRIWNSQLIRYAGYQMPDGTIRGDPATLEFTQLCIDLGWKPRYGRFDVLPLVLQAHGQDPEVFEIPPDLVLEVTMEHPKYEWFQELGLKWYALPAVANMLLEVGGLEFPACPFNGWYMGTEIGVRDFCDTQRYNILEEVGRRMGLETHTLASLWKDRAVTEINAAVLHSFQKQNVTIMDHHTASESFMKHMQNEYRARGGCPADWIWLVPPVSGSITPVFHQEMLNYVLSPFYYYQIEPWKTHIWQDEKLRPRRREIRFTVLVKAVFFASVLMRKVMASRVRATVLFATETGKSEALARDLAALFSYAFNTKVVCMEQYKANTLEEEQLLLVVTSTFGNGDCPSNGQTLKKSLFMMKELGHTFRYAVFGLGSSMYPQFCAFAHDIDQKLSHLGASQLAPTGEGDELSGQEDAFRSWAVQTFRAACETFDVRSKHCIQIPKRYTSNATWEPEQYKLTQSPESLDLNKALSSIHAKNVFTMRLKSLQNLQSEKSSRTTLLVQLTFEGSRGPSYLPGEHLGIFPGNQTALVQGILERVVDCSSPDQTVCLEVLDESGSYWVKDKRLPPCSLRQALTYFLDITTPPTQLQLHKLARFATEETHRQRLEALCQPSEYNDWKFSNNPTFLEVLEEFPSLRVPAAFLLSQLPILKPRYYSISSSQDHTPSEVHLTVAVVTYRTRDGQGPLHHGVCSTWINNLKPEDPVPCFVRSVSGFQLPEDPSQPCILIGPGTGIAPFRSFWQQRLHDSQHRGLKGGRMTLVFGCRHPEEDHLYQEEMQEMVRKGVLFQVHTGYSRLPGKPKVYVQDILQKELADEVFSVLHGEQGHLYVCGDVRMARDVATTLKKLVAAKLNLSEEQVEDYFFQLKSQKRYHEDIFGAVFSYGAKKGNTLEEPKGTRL

Turning to `CNC(=N)NCCC[C@H](N)C(=O)O` [L-NMMA, N^G-monomethyl-L-arginine, reference compound], in assay [1] (read-out: IC50 value, iNOS (Type 2)), the IC50 came out at 3.48 µM.

For the compound `CCSC(=N)Nc1cccc(CN)c1.Cl.Cl` [Example 28, N-(3-(S-ethylisothioureido)phenylmethyl)amine dihydrochloride], the “iNOS inhibitory potency compared with the existing NOS inhibitors (L-MIN)” value in assay [1] (setting [3]) was “more potent in inhibiting iNOS than L-MIN”. Moreover, the IC50 in assay [1] (setting [4]) worked out at 0.0327 µM.

`CCSC(=N)Nc1ccc(OCc2ccccc2)c(CN)c1.Cl.Cl` [Example 337, N-(2-benzyloxy-5-(S-ethylisothioureido)phenylmethyl)amine dihydrochloride]: the “Ratio of IC50 values E-cNOS/iNOS” value in assay [1] (index of selectivity) came out at 0.3. Moreover, in assay [2] (setting [5]), the IC50 stood at 5.2 µM.

`CC(C)(N)c1cccc(NC(N)=N[N+](=O)[O-])c1.Cl` [Example 7, N-(1-methyl-1-(3-(N′-nitroguanidino)phenyl)ethyl)amine hydrochloride]: the “Ratio of IC50 values E-cNOS/iNOS” value in assay [1] was 0.02. Also, the IC50 in assay [1] (setting [4]) stood at 2.12 µM; in assay [2] (setting [5]) it was 0.0424 µM.

`CN(C)Cc1cccc(NC(N)=N[N+](=O)[O-])c1` [Example 39, N-(3-(N′-nitroguanidino)phenylmethyl)dimethylamine acetate]: the IC50 in assay [1] (setting [4]) came out at 22.9 µM.

As for `CCC(N)c1cccc(NC(N)=N[N+](=O)[O-])c1` (stereo not shown) [Example 21, N-(1-(3-(N′-nitroguanidino)phenyl)propyl)amine hydrochloride], the IC50 in assay [1] (setting [4]) came to 2.61 µM.

With `CCOc1ccc(NC(=N)SCC)cc1CN.Cl.Cl` [Example 324, N-(2-ethoxy-5-(S-ethylisothioureido)phenylmethyl) amine dihydrochloride], the “Ratio of IC50 values E-cNOS/iNOS” value in assay [1] (index of selectivity) was 0.3. The figures for the IC50 in assay [1] (setting [4]) and in assay [2] (setting [5]) were 8.73 µM and 2.31 µM, respectively.

Regarding `CCSC(=N)Nc1ccc(N(C)C)c(CN)c1.Cl.Cl.Cl` [Example 270, N-(2-dimethylamino-5-(S-ethylisothioureido)phenylmethyl)amine trihydrochloride], in assay [1] (index of selectivity), the “Ratio of IC50 values E-cNOS/iNOS” value came out at 0.8. Also, the IC50 in assay [1] (setting [4]) was 4.53 µM; in assay [2] (setting [5]) it was 3.59 µM.

In the case of `CCN=C(N)Nc1ccc(N(C)C)c(CN)c1.Cl.Cl.Cl` [Example 267, N-(2-dimethylamino-5-(N′-ethylguanidino)phenylmethyl)amine trihydrochloride], in assay [1] (setting [3]), the “selectivity for iNOS compared to E-cNOS, compared with the existing NOS inhibitors (L-NIO)” value is recorded as “more selective inhibitory effect on iNOS than L-NIO”. Also, the “Ratio of IC50 values E-cNOS/iNOS” value in assay [1] (index of selectivity) was 10.5. Besides, the results for the IC50 in assay [1] (setting [4]) and in assay [2] (setting [5]) were 4.79 µM and 50.1 µM, respectively.

For `CCSC(=N)Nc1cccc(CN)c1C.Cl.Cl` [Example 131, N-(3-(S-ethylisothioureido)-2-methylphenylmethyl)amine dihydrochloride], in assay [1], the “Ratio of IC50 values E-cNOS/iNOS” value stood at 6.2 and the “selectivity for iNOS compared to E-cNOS, compared with the existing NOS inhibitors (L-NIO)” value is listed as “more selective inhibitory effect on iNOS than L-NIO”. The “iNOS inhibitory potency compared with the existing NOS inhibitors (L-MIN)” value in assay [1] (setting [3]) is reported as “more potent in inhibiting iNOS than L-MIN”. For the same compound, the IC50 in assay [1] (setting [4]) worked out at 0.0782 µM. Moreover, the IC50 in assay [2] (setting [5]) is 0.481 µM.

Consider `CC(N)c1cccc(NC(N)=N[N+](=O)[O-])c1` (stereo not shown) [Example 14, N-(1-(3-(N′-nitroguanidino)phenyl)ethyl)amine hydrochloride], for which the IC50 in assay [1] (setting [4]) was found to be 3.68 µM.

As to `CCSC(=N)Nc1ccc(CCN)cc1.Cl.Cl` [Example 104, N-(4-(S-ethylisothioureido)phenylethyl)amine dihydrochloride], the “iNOS inhibitory potency compared with the existing NOS inhibitors (L-MIN)” value in assay [1] (setting [3]) was “more potent in inhibiting iNOS than L-MIN”. For the same compound, the “Ratio of IC50 values E-cNOS/iNOS” value in assay [1] (index of selectivity) is recorded as 1.4. Besides, the IC50 came to 0.0865 µM in assay [1] (setting [4]) and 0.118 µM in assay [2] (setting [5]).

As to `N=C(Nc1cccc(CN)c1)N[N+](=O)[O-]` [Example 34, N-(3-(N′-nitroguanidino)phenylmethyl)amine], in assay [1] (setting [6]), the IC50 came to 6.76 µM.

`CSC(=N)Nc1ccc(CCN)cc1.Cl.Cl` [Example 52, N-(4-(S-methylisothioureido)phenylethyl)amine dihydrochloride]: in assay [1] (index of selectivity), the “Ratio of IC50 values E-cNOS/iNOS” value is 0.2. Also, the IC50 was 2.76 µM in assay [1] (setting [4]) and 0.483 µM in assay [2] (setting [5]).

On to `CCC(N)c1cccc(NC(=N)SC)c1` (stereo not shown) [Example 19, N-(1-(3-(S-methylisothioureido)phenyl)propyl)amine dihydrochloride], for which, in assay [1] (setting [4]), the IC50 stood at 2.4 µM.

As to `CSC(=N)Nc1cccc(CN)c1.Cl.Cl` [Example 26, N-(3-(S-methylisothioureido)phenylmethyl)amine dihydrochloride], the “Ratio of IC50 values E-cNOS/iNOS” value in assay [1] (index of selectivity) was found to be 0.3. The 50% inhibitory concentration (IC50) in assay [1] (setting [4]) came out at 1.35 µM; in assay [2] (setting [5]), 0.431 µM.

Turning to `CCSC(=N)Nc1ccc(OC)c(CN)c1` [Example 122, N-(5-(S-ethylisothioureido)-2-methoxyphenylmethyl)amine dihydrochloride], the 50% inhibitory concentration (IC50) in assay [1] (setting [4]) amounted to 24.6 µM; in assay [2] (setting [5]) it was 3.53 µM.

As to `CCSC(=N)Nc1ccc(NC)c(CN)c1.Cl.Cl.Cl` [Example 452, N-(5-(S-ethylisothioureido)-2-methylaminophenylmethyl)amine trihydrochloride], the “Ratio of IC50 values E-cNOS/iNOS” value in assay [1] came out at 0.5. Further, the 50% inhibitory concentration (IC50) in assay [1] (setting [4]) was determined as 6.96 µM; in assay [2] (setting [5]), 3.63 µM.

With `N=C(Nc1ccc(CCN)cc1)N[N+](=O)[O-]` [Example 54, N-(4-(N′-nitroguanidino)phenylethyl)amine], in assay [1] (setting [4]), the IC50 is 5.02 µM.

On to `CCN=C(N)Nc1cccc(C2(N)CCCC2)c1` [Example 236, N-(1-(3-(N′-ethylguanidino)phenyl)cyclopentyl)amine dihydrochloride], for which the IC50 in assay [2] (setting [5]) was 0.325 µM.

Regarding `CSC(=N)Nc1cccc(C2(N)CCCCC2)c1` [Example 142, N-(1-(3-(S-methylisothioureido)phenyl)cyclohexyl)amine dihydrochloride], in assay [2], the IC50 was found to be 0.663 µM.

Regarding `CCN=C(N)Nc1cccc(CNC)c1` [Example 376, N-(3-(N′-ethylguanidino)phenylmethyl)methylamine dihydrochloride], in assay [2] (setting [5]), the IC50 was 0.339 µM.

With `CCSC(=N)Nc1cccc(C2(N)CC2)c1` [Example 167, N-(1-(3-(S-ethylisothioureido)phenyl)cyclopropyl)amine dihydrochloride], the IC50 in assay [2] (setting [5]) came out at 0.366 µM.

Regarding `CSC(=N)Nc1cccc(C(C)(C)N)c1.Cl.Cl` [Example 5, N-(1-methyl-1-(3-(S-methylisothioureido)phenyl)ethyl)amine dihydrochloride], the “Ratio of IC50 values E-cNOS/iNOS” value in assay [1] (index of selectivity) is 1.0. The IC50 in assay [1] (setting [4]) worked out at 0.449 µM; in assay [2] (setting [5]) it was 0.429 µM.

For `CN(C)c1ccc(NC(N)=N[N+](=O)[O-])cc1CN` [Example 281, N-(2-dimethylamino-5-(N′-nitroguanidino)phenylmethyl)amine dihydrochloride], the half-inhibitory concentration (IC50) in assay [2] (setting [5]) turned out to be 1.62 µM.

In turn, `CCSC(=N)Nc1cccc(C2(N)CCCCC2)c1` [Example 144, N-(1-(3-(S-ethylisothioureido)phenyl)cyclohexyl)amine dihydrochloride] registered an IC50 in assay [2] of 0.898 µM.

For `CSC(=N)Nc1cccc(C(C)N)c1.Cl.Cl` (stereo not shown) [Example 12, N-(1-(3-(S-methylisothioureido)phenyl)ethyl)amine dihydrochloride], the “Ratio of IC50 values E-cNOS/iNOS” value in assay [1] is reported as 2.3. Also, the “iNOS inhibitory potency compared with the existing NOS inhibitors (L-MIN)” value in assay [1] (setting [3]) is “more potent in inhibiting iNOS than L-MIN”. The IC50 was 0.239 µM in assay [1] (setting [4]) and 0.538 µM in assay [2] (setting [5]).

`CCSC(N)=NCCC[C@H](N)C(=O)O` [L-EIN, S-ethyl-L-thiocitrulline, reference compound]: the IC50 in assay [1] (setting [4]) stood at 6.76 µM; in assay [2] (setting [5]), 0.732 µM.

In assay [2], `NC(=N[N+](=O)[O-])Nc1cccc(C2(N)CCCCC2)c1` [Example 169, N-(1-(3-(N′-nitroguanidino)phenyl)cyclohexyl)amine hydrochloride] had a 50% inhibitory concentration (IC50) of 0.0415 µM.

With `N/N=C(\N)NCCC[C@H](N)C(=O)O` [L-AA, N^G-amino-L-arginine, reference compound], the IC50 in assay [1] was 1.28 µM; in assay [2], 0.167 µM.

With `CCN=C(N)Nc1cccc(CN)c1Cl.Cl.Cl` [Example 538, N-(2-chloro-3-(N′-ethylguanidino)phenylmethyl)amine dihydrochloride], in assay [1], the “Ratio of IC50 values E-cNOS/iNOS” value is 8.3 and the “selectivity for iNOS compared to E-cNOS, compared with the existing NOS inhibitors (L-NIO)” value is reported as “more selective inhibitory effect on iNOS than L-NIO”. In assay [1] (setting [4]), the IC50 was determined as 0.306 µM. For the same compound, the IC50 in assay [2] (setting [5]) was determined as 2.54 µM.

Consider `CSC(=N)Nc1cccc(CCN)c1` [Example 60, N-(3-(S-methylisothioureido)phenylethyl)amine dihydrochloride], for which the IC50 in assay [1] (setting [4]) turned out to be 6.75 µM.

In the case of `CC(=N)NCCC[C@H](N)C(=O)O` [L-NIO, NG-iminoethyl-L-ornithine, reference compound], the half-inhibitory concentration (IC50) in assay [1] (setting [6]) worked out at 0.458 µM; in assay [2] (mean of one to four independent experiments, CPAE cell crude enzyme, read-out: IC50 value, E-cNOS (Type 3)), 1.23 µM.

On to `CCSC(=N)Nc1ccc(OC)c(C(C)(C)N)c1` [Example 350, N-(1-(5-(S-ethylisothioureido)-2-methoxyphenyl)-1-methylethyl)amine], for which the “Ratio of IC50 values E-cNOS/iNOS” value in assay [1] (index of selectivity) is listed as 0.3. The IC50 in assay [1] (setting [4]) is 58.4 µM; in assay [2] (setting [5]) it was 15.8 µM.

`CCSC(=N)Nc1cccc(C(N)CC)c1` (stereo not shown) [Example 177, N-(1-(3-(S-ethylisothioureido)phenyl)propyl)amine dihydrochloride]: in assay [2] (setting [5]), the IC50 is 0.51 µM.

In general, IC50 refers to the midpoint of a concentration-inhibition curve.
